Experimental findings from patent US20250099446A1, “HYBRID PHARMACEUTICAL COMPOSITION OBTAINED BY CONJUGATION OF A PROTON PUMP INHIBITOR AND A CARBON ANHYDRASE INHIBITOR” (EXO LAB ITALIA, S.r.l., priority 2022, published 2025) are described below.

What all share (assay): Stopped-Flow kinetic assay, carbonic anhydrase inhibition
Experiment [1] deals with CA I (Homo sapiens, UniProt P00915).
Experiment [2] deals with CA IV (Homo sapiens, UniProt P22748).
The target of experiment [3] is CA II (Homo sapiens, UniProt P00918).
Experiment [4] deals with CA IX (Homo sapiens, UniProt Q16790).
In experiment [5] the target is CA XII (Homo sapiens, UniProt O43570).
Sequence of CA XII (O43570 25-354): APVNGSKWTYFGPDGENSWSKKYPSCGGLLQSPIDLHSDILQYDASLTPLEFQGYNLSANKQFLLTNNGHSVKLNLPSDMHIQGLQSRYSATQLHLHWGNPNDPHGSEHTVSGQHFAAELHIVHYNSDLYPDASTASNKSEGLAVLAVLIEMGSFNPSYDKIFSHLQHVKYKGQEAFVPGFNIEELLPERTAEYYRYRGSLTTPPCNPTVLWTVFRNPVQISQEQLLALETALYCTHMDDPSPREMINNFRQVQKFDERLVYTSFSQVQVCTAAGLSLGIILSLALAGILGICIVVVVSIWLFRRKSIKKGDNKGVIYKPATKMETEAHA

Sequence of CA IV (P22748 19-284): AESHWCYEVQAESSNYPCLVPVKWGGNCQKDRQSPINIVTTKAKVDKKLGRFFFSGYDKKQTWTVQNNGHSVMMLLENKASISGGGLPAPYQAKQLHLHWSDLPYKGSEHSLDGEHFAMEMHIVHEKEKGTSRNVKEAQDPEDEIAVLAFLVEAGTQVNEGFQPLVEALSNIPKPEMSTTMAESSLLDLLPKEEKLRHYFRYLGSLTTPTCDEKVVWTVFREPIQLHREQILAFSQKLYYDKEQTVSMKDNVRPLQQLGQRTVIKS
Sequence of CA I (P00915 whole entry): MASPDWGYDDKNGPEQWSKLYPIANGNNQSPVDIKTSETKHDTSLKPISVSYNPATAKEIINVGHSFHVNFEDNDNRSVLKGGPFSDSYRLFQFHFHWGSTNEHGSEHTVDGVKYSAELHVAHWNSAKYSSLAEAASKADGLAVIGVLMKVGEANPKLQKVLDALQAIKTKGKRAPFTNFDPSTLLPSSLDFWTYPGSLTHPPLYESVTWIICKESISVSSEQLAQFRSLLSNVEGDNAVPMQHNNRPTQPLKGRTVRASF

As a reminder, the Ki is the dissociation constant of the complex between target and ligand, obtained from inhibition or displacement. High values mean a looser hold on the target, low ones a stronger hold on the target. Consider `Cc1c(OCC(F)(F)F)ccnc1C[S+]([O-])c1nc2ccccc2n1C(=O)OCCOc1ccc2oc(=O)ccc2c1` (stereo not shown) [Compound A1, 2-((2-Osso-2H-cromen-6-il)ossi)etil 2-(((3-metil-4-(2,2,2-trifluoroetossi)piridin-2-il)metil)sulfinil)-1H-benzo[d]imidazolo-1 carbossilato], for which the Ki was greater than 10000 nM in experiment [1]; 14.4 nM in experiment [2]; greater than 10000 nM in experiment [3]; 79.2 nM in experiment [4]; 53 nM in experiment [5].
In the case of `Cc1c(OCC(F)(F)F)ccnc1C[S+]([O-])c1nc2ccccc2n1C(=O)OCCOc1ccc2ccc(=O)oc2c1` (stereo not shown) [Compound A2, 2-((2-Oxo-2H-chromen-7-yl)oxy)ethyl 2-(((3-methyl-4-(2,2,2-trifluoroethoxy)pyridin-2-yl)methyl)sulfinyl)-1H-benzo[d]imidazole-1 carboxylate], the Ki in experiment [1] is greater than 10000 nM; in experiment [2], 10.3 nM; in experiment [3], greater than 10000 nM; in experiment [4], 97.2 nM; in experiment [5], 60.3 nM.
`Cc1c(OCC(F)(F)F)ccnc1C[S+]([O-])c1nc2ccccc2n1C(=O)OCCCOc1ccc2oc(=O)ccc2c1` (stereo not shown) [Compound A3]: the Ki in experiment [1] is greater than 10000 nM; in experiment [2] it was 6.4 nM; in experiment [3] it was greater than 10000 nM; in experiment [4] it was 41.6 nM; in experiment [5], 8.9 nM.
With `Cc1c(OCC(F)(F)F)ccnc1C[S+]([O-])c1nc2ccccc2n1C(=O)OCCCOc1ccc2ccc(=O)oc2c1` (stereo not shown) [Compound A4], the Ki in experiment [1] is greater than 10000 nM; in experiment [2], 7.7 nM; in experiment [3] it was greater than 10000 nM; in experiment [4], 47 nM; in experiment [5], 20.6 nM.
With `O=c1ccc2cc(OCCO)ccc2o1` [Compound G1A, 6-(2-hydroxyethoxy)-2H-chromen-2-one], the Ki in experiment [1] was greater than 10000 nM; in experiment [3], greater than 10000 nM; in experiment [4], 306 nM.
In the case of `O=c1ccc2ccc(OCCO)cc2o1` [Compound G1B, 7-(2-idrossietossi)-2H-cromen-2-one], the Ki was greater than 10000 nM in experiment [3] and 334 nM in experiment [4].
